Data as given in PubChem BioAssay AID330 (DTP/NCI, 2004).
Where “and” joins values, the source holds several entries; their conditions need not be identical. Identical values can stand only once. Toxic doses and inconclusive results are not listed. Rule for the calls: active = survival T/C of 150% or more; inactive = T/C below 125% in these data. Square brackets hold non-standard residues; d marks the D form. Peptide text beside a SMILES is read from it. * marks the point of attachment. ξ: configuration not given here. Cbz = O=C(OCc1ccccc1)*; Bn = c1ccc(C*)cc1; ξC = NC(CS)C(=O)O

Test system: P388 leukemia ip, CD2F1 mice, survival T/C
Assay: NCI In Vivo Anticancer Drug Screen. Data for tumor model P388 Leukemia (intraperitoneal) in CD2F1 (CDF1) mice
Settings: endpoint: median survival time, higher = longer survival
Summary of the method: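 Mice carrying the transplanted tumor received test compound or vehicle. Survival was recorded in each group, and the value is the treated-group measurement divided by that of the vehicle-treated control group.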

[1] = dose: 60.0 mg/kg/injection, schedule: Q01DX005 (ip), vehicle: saline with Tween-80
[2] = dose: 120.0 mg/kg/injection, schedule: Q01DX005 (ip), vehicle: saline with Tween-80
[3] = dose: 240.0 mg/kg/injection, schedule: Q01DX005 (ip), vehicle: saline with Tween-80
[4] = dose: 50.0 mg/kg/injection, schedule: Q01DX009 (ip), vehicle: saline with Tween-80
[5] = dose: 100.0 mg/kg/injection, schedule: Q01DX009 (ip), vehicle: saline with Tween-80
[6] = dose: 200.0 mg/kg/injection, schedule: Q01DX009 (ip), vehicle: saline with Tween-80
[7] = dose: 50.0 mg/kg/injection, schedule: Q01DX005 (ip), vehicle: saline with Tween-80
[8] = dose: 100.0 mg/kg/injection, schedule: Q01DX005 (ip), vehicle: saline with Tween-80
[9] = dose: 25.0 mg/kg/injection, schedule: Q01DX009 (ip), vehicle: saline with Tween-80
[10] = dose: 50.0 mg/kg/injection, schedule: Q01DX005 (ip), vehicle: Klucel (hydroxypropylcellulose) (HPC)
[11] = dose: 100.0 mg/kg/injection, schedule: Q01DX005 (ip), vehicle: Klucel (hydroxypropylcellulose) (HPC)
[12] = dose: 200.0 mg/kg/injection, schedule: Q01DX005 (ip), vehicle: Klucel (hydroxypropylcellulose) (HPC)

Measured: T/C

Cc1onc(-c2c(F)cccc2Cl)c1C(=O)Oc1ccccc1
inactive: dose: 30.0 mg/kg/injection, schedule: Q01DX005 (ip), vehicle: saline with Tween-80 100 % of control | [1] 100 % of control | [2] 103 % of control | [3] 99 % of control

CC(=O)CC(=O)CCCCC(=O)O
inactive: [4] 112 % of control | [5] 112 % of control | [6] 104 % of control

COC(=O)c1cc(C)c(NC(C)=O)cc1C
inactive: dose: 12.5 mg/kg/injection, schedule: Q01DX009 (ip), vehicle: distilled water + Tween-80 100 % of control | dose: 25.0 mg/kg/injection, schedule: Q01DX009 (ip), vehicle: distilled water + Tween-80 98 % of control | dose: 50.0 mg/kg/injection, schedule: Q01DX009 (ip), vehicle: distilled water + Tween-80 90 % of control | dose: 100.0 mg/kg/injection, schedule: Q01DX009 (ip), vehicle: distilled water + Tween-80 98 % of control | dose: 200.0 mg/kg/injection, schedule: Q01DX009 (ip), vehicle: distilled water + Tween-80 89 % of control

Cc1ccc(N2CCN(CC(O)COc3cc4ccccc4c4c3CCCC4)CC2)cc1C (centres undefined)
inactive: dose: 100.0 mg/kg/injection, schedule: Q04DX003 (ip), vehicle: Klucel (hydroxypropylcellulose) (HPC) 95 % of control | dose: 200.0 mg/kg/injection, schedule: Q04DX003 (ip), vehicle: Klucel (hydroxypropylcellulose) (HPC) 104 % of control | dose: 400.0 mg/kg/injection, schedule: Q04DX003 (ip), vehicle: Klucel (hydroxypropylcellulose) (HPC) 108 % of control

NC(CCCC(N)C(=O)c1ccccc1)C(=O)c1ccccc1 (centres undefined)
inactive: [1] 92 % of control | [2] 91 % of control | [3] 92 % of control

c1ccc(CN2COc3c4c(c5ccccc5c3C2)CN(Cc2ccccc2)CO4)cc1
inactive: [7] 90 % of control | [8] 103 % of control | dose: 200.0 mg/kg/injection, schedule: Q01DX005 (ip), vehicle: saline with Tween-80 93 % of control

C[N+](C)(C)CCC(=O)c1ccc(Cl)c(Cl)c1
inactive: dose: 3.13 mg/kg/injection, schedule: Q01DX009 (ip), vehicle: saline 108 % of control | dose: 6.25 mg/kg/injection, schedule: Q01DX009 (ip), vehicle: saline 112 % of control | dose: 12.5 mg/kg/injection, schedule: Q01DX009 (ip), vehicle: saline 108 % of control

O=C(c1ccccc1)N1OC2C=CC1CC2 (centres undefined)
inactive: [4] 104 % of control | [5] 98 % of control | [6] 109 % of control

c1ccc(N=N/C(=N\Nc2ccccc2)SCCS/C(N=Nc2ccccc2)=N/Nc2ccccc2)cc1
inactive: [9] 98 % of control and 97 % of control | [4] 93 % of control and 97 % of control | [5] 111 % of control and 92 % of control | [6] 98 % of control

N#CC1(C#N)OC1(C#N)c1ccccc1 (centres undefined)
inactive: dose: 3.0 mg/kg/injection, schedule: Q01DX009 (ip), vehicle: saline with Tween-80 100 % of control | dose: 6.0 mg/kg/injection, schedule: Q01DX009 (ip), vehicle: saline with Tween-80 100 % of control | dose: 12.0 mg/kg/injection, schedule: Q01DX009 (ip), vehicle: saline with Tween-80 100 % of control

C=C1C2CCC3C(CCC4C5(C)CCCC43CN3CCOC35)(C2)C1O (centres undefined)
inactive: dose: 1.0 mg/kg/injection, schedule: Q01DX009 (ip), vehicle: Klucel (hydroxypropylcellulose) (HPC) 95 % of control | dose: 2.0 mg/kg/injection, schedule: Q01DX009 (ip), vehicle: Klucel (hydroxypropylcellulose) (HPC) 97 % of control | dose: 4.0 mg/kg/injection, schedule: Q01DX009 (ip), vehicle: Klucel (hydroxypropylcellulose) (HPC) 98 % of control | dose: 8.0 mg/kg/injection, schedule: Q01DX009 (ip), vehicle: Klucel (hydroxypropylcellulose) (HPC) 97 % of control

Cc1cc(O)c(C(=O)/C=C(\O)c2ccccc2)c(=O)o1
inactive: dose: 10.5 mg/kg/injection, schedule: Q01DX005 (ip), vehicle: Klucel (hydroxypropylcellulose) (HPC) 100 % of control | dose: 21.0 mg/kg/injection, schedule: Q01DX005 (ip), vehicle: Klucel (hydroxypropylcellulose) (HPC) 102 % of control | dose: 42.0 mg/kg/injection, schedule: Q01DX005 (ip), vehicle: Klucel (hydroxypropylcellulose) (HPC) 106 % of control | dose: 84.0 mg/kg/injection, schedule: Q01DX005 (ip), vehicle: Klucel (hydroxypropylcellulose) (HPC) 86 % of control

COc1cc2c(cc1OC)C1=[N+](CC2)C2=C(CC1)C(=O)CCC2
inactive: dose: 25.0 mg/kg/injection, schedule: Q01DX005 (ip), vehicle: Klucel (hydroxypropylcellulose) (HPC) 94 % of control | [10] 97 % of control | [11] 99 % of control | [12] 93 % of control

CC(CCCCCCCC1CC(OS(=O)(=O)O)CCCCCCCCCCCC(OS(=O)(=O)O)CC(OS(=O)(=O)O)CCCCCCCCCCCCCC(=O)O1)OS(=O)(=O)O (centres undefined) (tested in a mixture with another compound)
inactive: dose: 25.0 micrograms/kg/injection, schedule: Q01DX005 (ip), vehicle: Klucel (hydroxypropylcellulose) (HPC) 98 % of control | dose: 50.0 micrograms/kg/injection, schedule: Q01DX005 (ip), vehicle: Klucel (hydroxypropylcellulose) (HPC) 103 % of control | dose: 100.0 micrograms/kg/injection, schedule: Q01DX005 (ip), vehicle: Klucel (hydroxypropylcellulose) (HPC) 97 % of control | dose: 200.0 micrograms/kg/injection, schedule: Q01DX005 (ip), vehicle: Klucel (hydroxypropylcellulose) (HPC) 97 % of control

O=C(c1ccc(Cl)c(Cl)c1)N1CCNC1=S
inactive: dose: 50.0 mg/kg/injection, schedule: Q01DX009 (ip), vehicle: Klucel (hydroxypropylcellulose) (HPC) 104 % of control | dose: 100.0 mg/kg/injection, schedule: Q01DX009 (ip), vehicle: Klucel (hydroxypropylcellulose) (HPC) 104 % of control | dose: 200.0 mg/kg/injection, schedule: Q01DX009 (ip), vehicle: Klucel (hydroxypropylcellulose) (HPC) 100 % of control

c1ccc(N=P(c2ccccc2)(c2ccccc2)c2ccccc2)cc1
inactive: [9] 96 % of control | [4] 108 % of control | [5] 108 % of control

COc1cc(C2=[N+](C)CCc3cc4c(cc32)OCO4)cc(OC)c1OC
inactive: [10] 99 % of control | [11] 103 % of control

C[C@@]12C(=O)OC(=O)[C@]1(C)[C@H]1CC[C@@H]2O1
inactive: dose: 0.5 mg/kg/injection, schedule: Q01DX005 (ip), vehicle: acetone 105 % of control | dose: 62.5 micrograms/kg/injection, schedule: Q01DX005 (ip), vehicle: acetone 102 % of control | dose: 125.0 micrograms/kg/injection, schedule: Q01DX005 (ip), vehicle: acetone 107 % of control | dose: 250.0 micrograms/kg/injection, schedule: Q01DX005 (ip), vehicle: acetone 102 % of control | dose: 500.0 micrograms/kg/injection, schedule: Q01DX005 (ip), vehicle: acetone 102 % of control

CCCNc1nc(C)nc2[nH]c(Cc3ccccc3)c(C)c12
inactive: [10] 97 % of control | [11] 100 % of control | [12] 100 % of control

CCOP(=O)(O)OCC.[Y]
inactive: dose: 100.0 mg/kg/injection, schedule: Q04DX003 (ip), vehicle: saline with Tween-80 93 % of control | dose: 200.0 mg/kg/injection, schedule: Q04DX003 (ip), vehicle: saline with Tween-80 100 % of control | dose: 400.0 mg/kg/injection, schedule: Q04DX003 (ip), vehicle: saline with Tween-80 111 % of control

CCCC(=O)C#C[Si](C)(C)C
inactive: [7] 103 % of control | [8] 103 % of control

O=C(CNC(=O)OCc1ccccc1)NCC(=O)NC(CSCc1ccccc1)C(=O)O (stereo not drawn) (Cbz-Gly-Gly-[ξC](Bn)-OH)
inactive: [10] 101 % of control | [11] 100 % of control | [12] 100 % of control
